Settings: for log10 BCF / log10 biotransformation half-life (days): fish

COc1c2c(cc3oc(=O)ccc13)OC(C)(C)C=C2
melting point: 133 °C

CCC(C)c1ccc(O)cc1 (configuration not stated)
boiling point: 241 °C | log10 vapour pressure (mmHg): -1.43 | melting point: 61.5 °C | ready biodegradability: not readily biodegradable | log10 BCF: 1.31 | log10 biotransformation half-life (days): -0.84

COc1cc2c(c(OC)c1OC)-c1ccc(O)c(=O)cc1[C@@H](NC(C)=O)CC2
melting point: 178 °C

CCC[Si](Cl)(Cl)Cl
boiling point: 124 °C | log10 vapour pressure (mmHg): 1.46

C=CC(=O)OCC(CC)CCCC (configuration not stated)
boiling point: 214 °C | log10 vapour pressure (mmHg): -0.75 | melting point: -90 °C | ready biodegradability: readily biodegradable

CC1CC1
boiling point: 0.7 °C | log10 vapour pressure (mmHg): 3.2 | melting point: -177 °C

Clc1ccc(Cl)c(-c2ccccc2)c1Cl
log10 Henry constant (atm·m³/mol): -3.66

O=C[C@H](O)[C@@H](O)[C@H](O[C@@H]1O[C@H](CO)[C@@H](O)[C@H](O)[C@H]1O)[C@H](O)CO
melting point: 240 °C

CCCCCCCCCCc1ccc(N)cc1
melting point: 25 °C

CCCB(O)O
melting point: 107 °C

C=CCCCCl
boiling point: 105 °C

O=c1oc2ccccc2c(O)c1C1CC(c2ccc(-c3ccccc3)cc2)Cc2ccccc21 (configuration not stated)
melting point: 216 °C

Clc1ccc(Br)c(Cl)c1
boiling point: 235 °C | melting point: 26 °C

CN1CC[C@]23c4c5ccc(OCc6ccccc6)c4O[C@H]2[C@@H](O)C=C[C@H]3[C@H]1C5
melting point: 132 °C

O=S(=O)(O)c1ccc(O)cc1
ready biodegradability: readily biodegradable

CCCCC(CC)COC(=O)COc1cc(Cl)c(Cl)cc1Cl (configuration not stated)
log10 vapour pressure (mmHg): -5.92

CCOC(=O)COC
boiling point: 142 °C

CCN(CC)C(=O)Nc1ccc(OCC(O)CNC(C)(C)C)c(C(C)=O)c1 (configuration not stated)
melting point: 111 °C

CC(C)CNC(=O)N1CCNC1=O
melting point: 95.5 °C

CCCC(C)(CC)CCC
boiling point: 161 °C

CCCCCCCN
boiling point: 156 °C | log10 vapour pressure (mmHg): 0.438 | melting point: -18 °C

CCCNC
boiling point: 62 °C

Cc1cnc(C)o1
boiling point: 118 °C

Cc1cccc(C)c1N
boiling point: 215 °C | log10 vapour pressure (mmHg): -0.886 | melting point: 11.2 °C | ready biodegradability: not readily biodegradable

O=C(O)C(F)(F)C(F)(F)C(F)(F)C(F)(F)C(F)(F)C(F)(F)C(F)(F)F
boiling point: 189 °C | log10 vapour pressure (mmHg): -0.28 | melting point: 55 °C | ready biodegradability: not readily biodegradable

CCCCCCCCCCCCCCCCCC(N)=O
melting point: 109 °C

Cc1cc(N)c2ccccc2n1
boiling point: 333 °C | melting point: 169 °C

O=C(O)CCCCCCCCC(=O)O
log10 vapour pressure (mmHg): -7.26 | melting point: 131 °C | ready biodegradability: readily biodegradable

Clc1ccc(Cl)c(-c2c(Cl)ccc(Cl)c2Cl)c1Cl
log10 Henry constant (atm·m³/mol): -4.06 | log10 Koc (L/kg): 6.01 | log10 biotransformation half-life (days): 2.34

CCOC(=O)C1(C)OC(=O)N(c2cc(Cl)cc(Cl)c2)C1=O (configuration not stated)
log10 vapour pressure (mmHg): -7.02 | melting point: 113 °C

Oc1c(F)c(F)cc(F)c1F
boiling point: 140 °C | melting point: 38 °C

C#CC(=C)C
boiling point: 32 °C | melting point: -113 °C

CC(C)COC(C)OCC(C)C
boiling point: 171 °C

c1ccc2c(Oc3cccc4ccccc34)cccc2c1
melting point: 110 °C

CCNCc1ccccc1
boiling point: 194 °C

O=C1OCCC1N(C(=O)C1CC1)c1cccc(Cl)c1 (configuration not stated)
melting point: 95 °C

Cc1cc(C(C)(C)c2ccc(O)c(C)c2)ccc1O
melting point: 139 °C

COC(=O)CCCCCCCCCCCC(=O)OC
boiling point: 332 °C | melting point: 36 °C

O=CCc1ccccc1
boiling point: 195 °C | log10 vapour pressure (mmHg): -0.407 | melting point: 33.5 °C

CC(=O)c1ccc(C)cc1C
boiling point: 228 °C

BrCCI
boiling point: 163 °C | melting point: 28 °C

O=C1c2ccccc2CCc2ccccc21
melting point: 30 °C

CN1C(=O)CN=C(c2ccccc2)c2cc([N+](=O)[O-])ccc21
melting point: 82 °C

CCCOC(=O)Nc1ccccc1
log10 Koc (L/kg): 2.06

CCOC(=O)CCl
boiling point: 144 °C | log10 vapour pressure (mmHg): 0.687 | melting point: -21 °C

NC(=O)N1CCCCC1
melting point: 105 °C

CC(C)c1ccccc1N
boiling point: 221 °C

CC(C)CC(=O)OC(=O)CC(C)C
boiling point: 215 °C

CC(C)C(Br)C(=O)NC(N)=O (configuration not stated)
melting point: 154 °C

Clc1ccc(-c2ccc(Cl)c(Cl)c2)cc1Cl
log10 Henry constant (atm·m³/mol): -5.03 | log10 Koa: 9.7 | log10 vapour pressure (mmHg): -4.78 | log10 BCF: 4.62 | log10 biotransformation half-life (days): 1.35

FC(F)I
boiling point: 21.6 °C | melting point: -122 °C

CCC(C)CC(C)(C)C (configuration not stated)
boiling point: 126 °C | log10 vapour pressure (mmHg): 1.2 | melting point: -120 °C

CC1CCc2ccccc2C1 (configuration not stated)
boiling point: 221 °C | melting point: -43.1 °C

O=C(c1ccccc1)c1ccc(C(F)(F)F)cc1
melting point: 115 °C

N=C(NCCCCCCNC(=N)NC(=N)Nc1ccc(Cl)cc1)NC(=N)Nc1ccc(Cl)cc1
melting point: 134 °C

CC1(C)C(=O)N(Br)C(=O)N1Cl
melting point: 164 °C

Cc1ccc([N+](=O)[O-])cc1
boiling point: 238 °C | log10 Henry constant (atm·m³/mol): -5.25 | log10 vapour pressure (mmHg): -1.8 | melting point: 51.6 °C | ready biodegradability: not readily biodegradable | log10 BCF: 0.9 | log10 biotransformation half-life (days): -1.01

CC1(C)OCC(CO)O1 (configuration not stated)
log10 vapour pressure (mmHg): 2.03

COc1ccn(C)c(=O)c1C#N
melting point: 202 °C

CCCS(=O)CCC
melting point: 22.5 °C

COC(=O)C1(S(=O)(=O)c2ccc(Br)cc2)CCCCC1
melting point: 112 °C

O=C(Cl)C(c1ccccc1)c1ccccc1
melting point: 56.5 °C

O=C(Oc1ccccc1)c1ccccc1C(=O)Oc1ccccc1
melting point: 73 °C

CC1=CC[C@@H]2CC1OC2(C)C
boiling point: 184 °C

C#CCOC(=O)/C=C(C)/C=C/CC(C)CCCC(C)C (configuration not stated)
log10 vapour pressure (mmHg): -5.14

ClCCOCCOCCCl
boiling point: 232 °C | log10 vapour pressure (mmHg): -1.22 | melting point: -31.5 °C | ready biodegradability: not readily biodegradable

Reference: the OPERA property sets (Mansouri et al. 2018)
